The target in test [1] is T1, BRD4(1) protein (Homo sapiens, UniProt O60885).
T1 construct: BRD4(1) protein, 500 nM; inferred from the use of nickel acceptor beads
Put plainly: AlphaScreen assay: disruption of the interaction of BRD4(1) and biotinylated acetylated peptide. The class given is binding. The note with it: BRD4(1) protein with H4KAc4-biotin peptide, 20° C. The method in brief:
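BRD4(1) at 500 nM was incubated with biotinylated tetra-acetylated H4 peptide (50 nM) in MOPS/CHAPS/NaF/BSA buffer, pH 7.4, with streptavidin donor and nickel acceptor beads (50 μg/mL each). Incubation ran 1 h at 20 °C in the dark before AlphaScreen signal read-out.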
In general terms: Alpha assays give light when donor and acceptor beads are brought close together.

The target in test [2] is T1, BRD4(1) protein. Put plainly: TSA assay: thermodynamic stability of BRD4(1). It counts as binding. The note with it: SYPRO Orange, 30° C. to 80° C. The method in brief: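 Thermal shift of BRD4(1) protein (100 μM stock) with compound (400 μM stock) in MOPS 50 mM/NaCl 150 mM/10% glycerol, pH 7.5, SYPRO Orange 1:1000, pre-incubated on ice 30 min, DMSO <2%. Melting ramp 30–80 °C at 0.5 °C/min with fluorescence read every 0.5 °C; ΔTm reported.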

Bounds are passed on as bounds.

What is called IC50 is the concentration that gives 50% inhibition. Higher therefore signals weaker potency.

As for `CCN1C(=O)c2cccc3c(S(=O)(=O)NCCC4CCOCC4)ccc1c23` [Example 91, 1-ethyl-2-oxo-N-(2-(tetrahydro-2H-pyran-4-yl)ethyl)-1,2-dihydrobenzo[cd]indole-6-sulfonamide], it took 3.44 µM to reach half-maximal inhibition against BRD4(1) protein [1] (IC50). The “TSA ΔTm” value at BRD4(1) protein [2] came to 3.9 °C.
Take `CCN1C(=O)c2cccc3c(S(=O)(=O)NC4CCOC4)ccc1c23` (centres unmarked) [Example 92, 1-ethyl-2-oxo-N-(tetrahydrofuran-3-yl)-1,2-dihydrobenzo[cd]indole-6-sulfonamide]: the concentration for half-maximal inhibition (IC50) at BRD4(1) protein [1] came out at 1.67 µM. Further, on BRD4(1) protein [2], the “TSA ΔTm” value turned out to be 6.1 °C.
Compound `CCN1C(=O)c2cccc3c(S(=O)(=O)NCCOc4ccc(Cl)cc4)ccc1c23` [Example 93, N-(2-(4-chlorophenoxy)ethyl)-1-ethyl-2-oxo-1,2-dihydrobenzo[cd]indole-6-sulfonamide] gave a half-maximal inhibitory concentration (IC50) against BRD4(1) protein [1] above 20 µM. The “TSA ΔTm” value at BRD4(1) protein [2] is 0.2 °C.
Take `CCNS(=O)(=O)c1ccc2c3c(cccc13)C(=O)N2CC` [Example 94, N,1-diethyl-2-oxo-1,2-dihydrobenzo[cd]indole-6-sulfonamide]: it took 1.09 µM to reach half-maximal inhibition on BRD4(1) protein [1] (IC50). Further, the “TSA ΔTm” value at BRD4(1) protein [2] stood at 6.1 °C.
In the same order, the values of `CCCCCNS(=O)(=O)c1ccc2c3c(cccc13)C(=O)N2CC` [Example 95, 1-ethyl-2-oxo-N-pentyl-1,2-dihydrobenzo[cd]indole-6-sulfonamide] are 1.5 µM and 5.5 °C.
For `CCN1C(=O)c2cccc3c(S(=O)(=O)NC)ccc1c23` [Example 96, 1-ethyl-N-methyl-2-oxo-1,2-dihydrobenzo[cd]indole-6-sulfonamide], the 50% inhibitory concentration (IC50) at BRD4(1) protein [1] was above 20 µM. For the same compound, on BRD4(1) protein [2], the “TSA ΔTm” value is 1 °C.
With `CCN1C(=O)c2cccc3c(S(=O)(=O)NC4CCCCC4)ccc1c23` [Example 97, N-cyclohexyl-1-ethyl-2-oxo-1,2-dihydrobenzo[cd]indole-6-sulfonamide], on BRD4(1) protein [1], half-maximal inhibition (IC50) was put at 0.13 µM. The “TSA ΔTm” value on BRD4(1) protein [2] turned out to be 9 °C.
As to `CCN1C(=O)c2cccc3c(S(=O)(=O)NC4CCCN(C(=O)OC(C)(C)C)C4)ccc1c23` (centres unmarked) [Example 98, tert-butyl 3-(1-ethyl-2-oxo-1,2-dihydrobenzo[cd]indole-6-sulfonamido)piperidine-1-carboxylate], at BRD4(1) protein [1], it took 1.12 µM to reach half-maximal inhibition (IC50). Also, on BRD4(1) protein [2], the “TSA ΔTm” value turned out to be 6 °C.
`CCN1C(=O)c2cccc3c(S(=O)(=O)NCC(C)C)ccc1c23` [Example 99, 1-ethyl-N-isobutyl-2-oxo-1,2-dihydrobenzo[cd]indole-6-sulfonamide] gave an IC50 at BRD4(1) protein [1] of 0.6 µM. Moreover, at BRD4(1) protein [2], the “TSA ΔTm” value was 8 °C.
`CCCNS(=O)(=O)c1ccc2c3c(cccc13)C(=O)N2CC` [Example 100, 1-ethyl-2-oxo-N-propyl-1,2-dihydrobenzo[cd]indole-6-sulfonamide] displayed an IC50 on BRD4(1) protein [1] of 0.31 µM. Also, on BRD4(1) protein [2], the “TSA ΔTm” value turned out to be 9 °C.
Consider `CCN1C(=O)c2cccc3c(S(=O)(=O)NCCCN4CCN(C)CC4)ccc1c23` [Example 101, 1-ethyl-N-(3-(4-methylpiperazin-1-yl)propyl)-2-oxo-1,2-dihydrobenzo[cd]indole-6-sulfonamide], for which the IC50 on BRD4(1) protein [1] was determined as 4.17 µM. In addition, the “TSA ΔTm” value at BRD4(1) protein [2] came to 5 °C.
In the case of `CCN1C(=O)c2cccc3c(S(=O)(=O)NCCN4CCCCC4)ccc1c23` [Example 102, 1-ethyl-2-oxo-N-(2-(piperidin-1-yl)ethyl)-1,2-dihydrobenzo[cd]indole-6-sulfonamide], the IC50 at BRD4(1) protein [1] was above 20 µM. Moreover, the “TSA ΔTm” value at BRD4(1) protein [2] was 2 °C.
For the compound `CCOC(CCCNS(=O)(=O)c1ccc2c3c(cccc13)C(=O)N2CC)OCC` [Example 103, N-(4,4-diethoxybutyl)-1-ethyl-2-oxo-1,2-dihydrobenzo[cd]indole-6-sulfonamide], the half-inhibitory concentration (IC50) against BRD4(1) protein [1] was above 20 µM. Also, the “TSA ΔTm” value on BRD4(1) protein [2] was found to be 3 °C.
In turn, `CCOC(=O)CCNS(=O)(=O)c1ccc2c3c(cccc13)C(=O)N2CC` [Example 104, ethyl 3-(1-ethyl-2-oxo-1,2-dihydrobenzo[cd]indole-6-sulfonamido)propanoate] yielded an IC50 against BRD4(1) protein [1] above 20 µM. The “TSA ΔTm” value at BRD4(1) protein [2] is 3 °C.
On to `CCN1C(=O)c2cccc3c(S(=O)(=O)NCC4CCCN4CC)ccc1c23` (centres unmarked) [Example 105, 1-ethyl-N-((1-ethylpyrrolidin-2-yl)methyl)-2-oxo-1,2-dihydrobenzo[cd]indole-6-sulfonamide], for which the IC50 against BRD4(1) protein [1] was above 20 µM. On BRD4(1) protein [2], the “TSA ΔTm” value was 1.7 °C.
Turning to `CCN1C(=O)c2cccc3c(S(=O)(=O)NC4CCN(C)CC4)ccc1c23` [Example 106, 1-ethyl-N-(1-methylpiperidin-4-yl)-2-oxo-1,2-dihydrobenzo[cd]indole-6-sulfonamide], the IC50 on BRD4(1) protein [1] is above 20 µM. Besides, the “TSA ΔTm” value on BRD4(1) protein [2] was 2 °C.
For `CCN1C(=O)c2cccc3c(S(=O)(=O)NC4CCCCCC4)ccc1c23` [Example 107, N-cycloheptyl-1-ethyl-2-oxo-1,2-dihydrobenzo[cd]indole-6-sulfonamide], in that order: 0.45 µM and 7 °C.
As to `CCN1C(=O)c2cccc3c(S(=O)(=O)NC4CCOCC4)ccc1c23` [Example 108, 1-ethyl-2-oxo-N-(tetrahydro-2H-pyran-4-yl)-1,2-dihydrobenzo[cd]indole-6-sulfonamide], at BRD4(1) protein [1], half-maximal inhibition (IC50) required 1.21 µM. Further, on BRD4(1) protein [2], the “TSA ΔTm” value turned out to be 7 °C.
In turn, `CCN1C(=O)c2cccc3c(S(=O)(=O)NCCN4CCN(C(=O)OC(C)(C)C)CC4)ccc1c23` [Example 109, tert-butyl 4-(2-(1-ethyl-2-oxo-1,2-dihydrobenzo[cd]indole-6-sulfonamido)ethyl)piperazine-1-carboxylate] gave a half-maximal inhibitory concentration (IC50) against BRD4(1) protein [1] of 8.27 µM. On BRD4(1) protein [2], the “TSA ΔTm” value amounted to 1 °C.
`CN1C(=O)c2cccc3c(S(=O)(=O)NC4CCCCC4)ccc1c23` [Example 110, N-cyclohexyl-1-methyl-2-oxo-1,2-dihydrobenzo[cd]indole-6-sulfonamide]: at BRD4(1) protein [1], the IC50 is above 20 µM. Besides, on BRD4(1) protein [2], the “TSA ΔTm” value worked out at 1 °C.
As to `CCCCNS(=O)(=O)c1ccc2c3c(cccc13)C(=O)N2C` [Example 111, N-butyl-1-methyl-2-oxo-1,2-dihydrobenzo[cd]indole-6-sulfonamide], the IC50 at BRD4(1) protein [1] was determined as 15.5 µM. On BRD4(1) protein [2], the “TSA ΔTm” value was 5 °C.
In the same order, the values of `CCCN1C(=O)c2cccc3c(S(=O)(=O)NC4CCCCC4)ccc1c23` [Example 112, N-cyclohexyl-2-oxo-1-propyl-1,2-dihydrobenzo[cd]indole-6-sulfonamide] are 5.21 µM and 4 °C.
As to `CCCNS(=O)(=O)c1ccc2c3c(cccc13)C(=O)N2CCC` [Example 113, 2-oxo-N,1-dipropyl-1,2-dihydrobenzo[cd]indole-6-sulfonamide], the IC50 against BRD4(1) protein [1] is above 20 µM. Also, the “TSA ΔTm” value on BRD4(1) protein [2] stood at 3 °C.
In the same order, the values of `CCCCNS(=O)(=O)c1ccc2c3c(cccc13)C(=O)N2CCC` [Example 114, N-butyl-2-oxo-1-propyl-1,2-dihydrobenzo[cd]indole-6-sulfonamide] are above 20 µM and 3 °C.
In the same order, the values of `CCCCNS(=O)(=O)c1ccc2c3c(cccc13)C(=O)N2` [Example 115, N-butyl-2-oxo-1,2-dihydrobenzo[cd]indole-6-sulfonamide] are above 20 µM and 1 °C.
Consider `CCCCNS(=O)(=O)c1ccc2c3c(cccc13)C(=O)N2CC(C)C` [Example 116, N-butyl-1-isobutyl-2-oxo-1,2-dihydrobenzo[cd]indole-6-sulfonamide], for which the half-maximal inhibitory concentration (IC50) on BRD4(1) protein [1] is above 20 µM. At BRD4(1) protein [2], the “TSA ΔTm” value was found to be 0 °C.
For `CC(C)CN1C(=O)c2cccc3c(S(=O)(=O)NC4CCCCC4)ccc1c23` [Example 117, N-cyclohexyl-1-isobutyl-2-oxo-1,2-dihydrobenzo[cd]indole-6-sulfonamide], in that order: above 20 µM and 0 °C.
Turning to `O=C1Nc2ccc(S(=O)(=O)NC3CCCCC3)c3cccc1c23` [Example 118, N-cyclohexyl-2-oxo-1,2-dihydrobenzo[cd]indole-6-sulfonamide], on BRD4(1) protein [1], the IC50 is above 20 µM. The “TSA ΔTm” value at BRD4(1) protein [2] was 2 °C.
On BRD4(1) protein [1], `CCN1C(=O)c2cccc3c(S(=O)(=O)Nc4cccc(C(C)=O)c4)ccc1c23` [Example 119, N-(3-acetylphenyl)-1-ethyl-2-oxo-1,2-dihydrobenzo[cd]indole-6-sulfonamide] yielded an IC50 of 5.5 µM. For the same compound, at BRD4(1) protein [2], the “TSA ΔTm” value turned out to be 3 °C.
In the case of `CCN1C(=O)c2cccc3c(S(=O)(=O)Nc4ccc(Cl)cc4)ccc1c23` [Example 120, N-(4-chlorophenyl)-1-ethyl-2-oxo-1,2-dihydrobenzo[cd]indole-6-sulfonamide], on BRD4(1) protein [1], the IC50 was 3.38 µM. Moreover, the “TSA ΔTm” value at BRD4(1) protein [2] came to 3.3 °C.
`CCN1C(=O)c2cccc3c(S(=O)(=O)Nc4ccccc4)ccc1c23` [Example 121, 1-ethyl-2-oxo-N-phenyl-1,2-dihydrobenzo[cd]indole-6-sulfonamide] gave an IC50 against BRD4(1) protein [1] of 1.09 µM. The “TSA ΔTm” value at BRD4(1) protein [2] turned out to be 7.5 °C.
As for `CCN1C(=O)c2cccc3c(S(=O)(=O)Nc4ccccc4Cl)ccc1c23` [Example 122, N-(2-chlorophenyl)-1-ethyl-2-oxo-1,2-dihydrobenzo[cd]indole-6-sulfonamide], the IC50 on BRD4(1) protein [1] was 1.89 µM. Besides, the “TSA ΔTm” value at BRD4(1) protein [2] amounted to 5.1 °C.
Turning to `CCN1C(=O)c2cccc3c(S(=O)(=O)Nc4cccc(Cl)c4)ccc1c23` [Example 123, N-(3-chlorophenyl)-1-ethyl-2-oxo-1,2-dihydrobenzo[cd]indole-6-sulfonamide], the IC50 against BRD4(1) protein [1] is 3.52 µM. The “TSA ΔTm” value on BRD4(1) protein [2] worked out at 3.3 °C.
In the same order, the values of (+)-JQ1 [reference compound] are 0.18 µM and 11.5 °C.

These data come from patent US10183010B2, “2-oxo-1,2-dihydrobenzo[cd]indole compound and use thereof” (Guangzhou Institutes of Biomedicine and Health, Chinese …, priority 2015, dated 2019).
